Source: ChEMBL document CHEMBL4507281, “Data for DCP probe BI-4394” (2021)

What was measured:
[1] = target: Tyrosine-protein kinase ABL1 (Homo sapiens) (UniProt P00519); details: Compound concentration 100.0 nM
[2] = target: ALK tyrosine kinase receptor (Homo sapiens) (UniProt Q9UM73); details: Compound concentration 100.0 nM
[3] = target: Tyrosine-protein kinase BTK (Homo sapiens) (UniProt Q06187); details: Compound concentration 100.0 nM
[4] = target: Casein kinase II subunit alpha (Homo sapiens) (UniProt P68400); details: Compound concentration 100.0 nM
[5] = target: Epithelial discoidin domain-containing receptor 1 (Homo sapiens) (UniProt Q08345); details: Compound concentration 100.0 nM
[6] = tested on: Epidermal growth factor receptor (Homo sapiens), P00533 [L858R]; details: Compound concentration 100.0 nM
[7] = tested on: Epidermal growth factor receptor (Homo sapiens), P00533 [L858R,T790M]; details: Compound concentration 100.0 nM
[8] = tested on: Epidermal growth factor receptor (Homo sapiens), P00533 [T790M]; details: Compound concentration 100.0 nM
[9] = target: Ephrin type-B receptor 2 (Homo sapiens) (UniProt P29323); details: Compound concentration 100.0 nM
[10] = target: Tyrosine-protein kinase Fer (Homo sapiens) (UniProt P16591); details: Compound concentration 100.0 nM
[11] = target: Tyrosine-protein kinase FRK (Homo sapiens) (UniProt P42685); details: Compound concentration 100.0 nM
[12] = target: Serine/threonine-protein kinase haspin (Homo sapiens) (UniProt Q8TF76); details: Compound concentration 100.0 nM
[13] = tested on: Mast/stem cell growth factor receptor Kit (Homo sapiens), P10721 [D816H]; details: Compound concentration 100.0 nM
[14] = tested on: Mast/stem cell growth factor receptor Kit (Homo sapiens), P10721 [V559D,T670I]; details: Compound concentration 100.0 nM
[15] = tested on: Leucine-rich repeat serine/threonine-protein kinase 2 (Homo sapiens), Q5S007 [G2019S]; details: Compound concentration 100.0 nM
[16] = target: Serine/threonine-protein kinase MAK (Homo sapiens) (UniProt P20794); details: Compound concentration 100.0 nM
[17] = target: Mitogen-activated protein kinase kinase kinase 4 (Homo sapiens) (UniProt Q9Y6R4); details: Compound concentration 100.0 nM
[18] = target: Microtubule-associated serine/threonine-protein kinase 1 (Homo sapiens) (UniProt Q9Y2H9); details: Compound concentration 100.0 nM
[19] = target: Dual specificity mitogen-activated protein kinase kinase 1 (Homo sapiens) (UniProt Q02750); details: Compound concentration 100.0 nM
[20] = target: Hepatocyte growth factor receptor (Homo sapiens) (UniProt P08581); details: Compound concentration 100.0 nM
[21] = target: MAP kinase-interacting serine/threonine-protein kinase 1 (Homo sapiens) (UniProt Q9BUB5); details: Compound concentration 100.0 nM
[22] = target: Serine/threonine-protein kinase 26 (Homo sapiens) (UniProt Q9P289); details: Compound concentration 100.0 nM
[23] = target: Serine/threonine-protein kinase Nek7 (Homo sapiens) (UniProt Q8TDX7); details: Compound concentration 100.0 nM
[24] = target: Cyclin-dependent kinase 14 (Homo sapiens) (UniProt O94921); details: Compound concentration 100.0 nM
[25] = tested on: Phosphatidylinositol 4,5-bisphosphate 3-kinase catalytic subunit alpha isoform (Homo sapiens), P42336 [C420R]; details: Compound concentration 100.0 nM
[26] = target: Serine/threonine-protein kinase PLK1 (Homo sapiens) (UniProt P53350); details: Compound concentration 100.0 nM
[27] = target: T1, Protein kinase C epsilon type (Homo sapiens) (UniProt Q02156); details: Compound concentration 100.0 nM
T1 sequence (whole entry): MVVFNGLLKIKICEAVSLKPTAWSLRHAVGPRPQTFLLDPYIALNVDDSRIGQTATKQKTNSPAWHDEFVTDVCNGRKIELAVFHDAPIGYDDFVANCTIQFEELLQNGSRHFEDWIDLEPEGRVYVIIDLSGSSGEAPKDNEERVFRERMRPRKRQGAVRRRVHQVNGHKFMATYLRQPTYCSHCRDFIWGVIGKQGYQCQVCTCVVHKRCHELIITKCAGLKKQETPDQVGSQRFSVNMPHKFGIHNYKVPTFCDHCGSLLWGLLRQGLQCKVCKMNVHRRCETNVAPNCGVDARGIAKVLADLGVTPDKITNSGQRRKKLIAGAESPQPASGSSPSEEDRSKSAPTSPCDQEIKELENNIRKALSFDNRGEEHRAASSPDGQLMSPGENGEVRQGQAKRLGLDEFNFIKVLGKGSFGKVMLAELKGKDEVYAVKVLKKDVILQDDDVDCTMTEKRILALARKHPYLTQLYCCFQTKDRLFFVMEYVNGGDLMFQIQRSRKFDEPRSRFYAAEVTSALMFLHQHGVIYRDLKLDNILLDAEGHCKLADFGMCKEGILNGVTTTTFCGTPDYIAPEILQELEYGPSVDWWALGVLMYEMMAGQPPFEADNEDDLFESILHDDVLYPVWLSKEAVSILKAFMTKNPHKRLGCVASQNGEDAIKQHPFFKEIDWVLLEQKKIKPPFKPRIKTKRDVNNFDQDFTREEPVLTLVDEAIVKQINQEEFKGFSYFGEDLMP

[28] = tested on: Proto-oncogene tyrosine-protein kinase receptor Ret (Homo sapiens), P07949 [M918T]; details: Compound concentration 100.0 nM
[29] = target: Ribosomal protein S6 kinase beta-1 (Homo sapiens) (UniProt P23443); details: Compound concentration 100.0 nM
[30] = target: Serine/threonine-protein kinase Sgk1 (Homo sapiens) (UniProt O00141); details: Compound concentration 100.0 nM
[31] = target: Serine/threonine-protein kinase Sgk2 (Homo sapiens) (UniProt Q9HBY8); details: Compound concentration 100.0 nM
[32] = target: Serine/threonine-protein kinase Sgk3 (Homo sapiens) (UniProt Q96BR1); details: Compound concentration 100.0 nM
[33] = target: Serine/threonine-protein kinase tousled-like 1 (Homo sapiens) (UniProt Q9UKI8); details: Compound concentration 100.0 nM
[34] = target: Kappa-type opioid receptor (Homo sapiens) (UniProt P41145); details: Compound concentration 10.0 uM
[35] = target: Beta-2 adrenergic receptor (Homo sapiens) (UniProt P07550); details: Compound concentration 10.0 uM

Hepatocyte growth factor receptor (Homo sapiens), sequence (P08581 whole entry): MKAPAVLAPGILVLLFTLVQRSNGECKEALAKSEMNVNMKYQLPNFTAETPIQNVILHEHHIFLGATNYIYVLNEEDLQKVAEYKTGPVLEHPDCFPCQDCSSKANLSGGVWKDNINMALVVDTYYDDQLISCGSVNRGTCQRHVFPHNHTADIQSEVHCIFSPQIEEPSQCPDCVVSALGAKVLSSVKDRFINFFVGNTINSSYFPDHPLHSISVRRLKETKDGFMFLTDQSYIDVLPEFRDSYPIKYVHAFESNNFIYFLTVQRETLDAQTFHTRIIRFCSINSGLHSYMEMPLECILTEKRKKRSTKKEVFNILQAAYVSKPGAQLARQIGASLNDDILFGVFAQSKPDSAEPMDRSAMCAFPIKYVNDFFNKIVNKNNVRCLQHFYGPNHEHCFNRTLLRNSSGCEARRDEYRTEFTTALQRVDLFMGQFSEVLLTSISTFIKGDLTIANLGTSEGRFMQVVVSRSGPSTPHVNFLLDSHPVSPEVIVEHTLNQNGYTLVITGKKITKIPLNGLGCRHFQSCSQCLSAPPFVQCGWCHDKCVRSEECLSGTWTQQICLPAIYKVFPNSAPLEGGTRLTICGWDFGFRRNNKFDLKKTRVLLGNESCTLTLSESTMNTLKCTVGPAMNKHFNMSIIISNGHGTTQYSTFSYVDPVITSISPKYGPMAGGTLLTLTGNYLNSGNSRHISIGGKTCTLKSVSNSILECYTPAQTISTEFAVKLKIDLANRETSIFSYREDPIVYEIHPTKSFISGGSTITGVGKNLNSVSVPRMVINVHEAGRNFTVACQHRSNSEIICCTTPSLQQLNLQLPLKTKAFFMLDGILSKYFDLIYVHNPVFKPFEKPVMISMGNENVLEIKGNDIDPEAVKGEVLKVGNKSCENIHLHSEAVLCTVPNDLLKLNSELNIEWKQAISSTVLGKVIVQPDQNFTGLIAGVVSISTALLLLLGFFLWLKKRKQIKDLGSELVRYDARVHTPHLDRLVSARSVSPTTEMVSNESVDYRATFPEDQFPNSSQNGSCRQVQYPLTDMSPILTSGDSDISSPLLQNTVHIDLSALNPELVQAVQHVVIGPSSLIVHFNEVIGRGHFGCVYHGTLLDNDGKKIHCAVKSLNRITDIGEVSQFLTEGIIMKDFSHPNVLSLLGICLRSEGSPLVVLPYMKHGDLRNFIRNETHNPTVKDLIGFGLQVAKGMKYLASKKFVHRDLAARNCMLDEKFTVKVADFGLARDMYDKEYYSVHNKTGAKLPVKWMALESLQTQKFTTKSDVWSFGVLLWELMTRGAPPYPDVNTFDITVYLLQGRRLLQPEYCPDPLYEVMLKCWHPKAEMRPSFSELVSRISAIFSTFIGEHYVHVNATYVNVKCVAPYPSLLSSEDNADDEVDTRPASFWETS
Tyrosine-protein kinase FRK (Homo sapiens), sequence (P42685 whole entry): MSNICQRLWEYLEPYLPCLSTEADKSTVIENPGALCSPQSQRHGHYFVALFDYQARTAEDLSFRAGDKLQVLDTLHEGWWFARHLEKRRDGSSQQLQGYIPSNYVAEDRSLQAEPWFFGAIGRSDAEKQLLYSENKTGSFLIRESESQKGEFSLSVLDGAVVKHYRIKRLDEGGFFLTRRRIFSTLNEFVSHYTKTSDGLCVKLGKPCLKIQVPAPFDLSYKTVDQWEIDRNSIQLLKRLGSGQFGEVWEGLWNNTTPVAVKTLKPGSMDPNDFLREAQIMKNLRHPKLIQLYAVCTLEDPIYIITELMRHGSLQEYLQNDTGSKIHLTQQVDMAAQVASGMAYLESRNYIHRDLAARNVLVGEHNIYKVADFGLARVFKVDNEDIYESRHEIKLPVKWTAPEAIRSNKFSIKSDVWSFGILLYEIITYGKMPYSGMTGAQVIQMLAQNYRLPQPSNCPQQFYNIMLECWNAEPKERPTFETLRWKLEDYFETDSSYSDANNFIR
Serine/threonine-protein kinase PLK1 (Homo sapiens), sequence (P53350 whole entry): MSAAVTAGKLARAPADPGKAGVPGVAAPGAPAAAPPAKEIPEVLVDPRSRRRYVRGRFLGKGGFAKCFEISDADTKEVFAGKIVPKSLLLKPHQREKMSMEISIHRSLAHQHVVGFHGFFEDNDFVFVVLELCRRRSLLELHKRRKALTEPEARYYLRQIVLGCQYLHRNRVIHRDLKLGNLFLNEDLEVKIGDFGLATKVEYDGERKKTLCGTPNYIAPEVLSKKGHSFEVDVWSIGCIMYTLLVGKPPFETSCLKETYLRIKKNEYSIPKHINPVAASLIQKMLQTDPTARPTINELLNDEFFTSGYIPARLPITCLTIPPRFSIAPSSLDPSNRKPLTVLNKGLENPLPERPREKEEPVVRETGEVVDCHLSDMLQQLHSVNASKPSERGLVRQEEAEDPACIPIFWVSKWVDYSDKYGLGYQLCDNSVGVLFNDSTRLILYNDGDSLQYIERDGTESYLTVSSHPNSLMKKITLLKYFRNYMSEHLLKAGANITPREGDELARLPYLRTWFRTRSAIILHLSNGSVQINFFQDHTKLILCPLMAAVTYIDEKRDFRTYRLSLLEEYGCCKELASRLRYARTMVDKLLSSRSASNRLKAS
Tyrosine-protein kinase ABL1 (Homo sapiens), sequence (P00519 whole entry): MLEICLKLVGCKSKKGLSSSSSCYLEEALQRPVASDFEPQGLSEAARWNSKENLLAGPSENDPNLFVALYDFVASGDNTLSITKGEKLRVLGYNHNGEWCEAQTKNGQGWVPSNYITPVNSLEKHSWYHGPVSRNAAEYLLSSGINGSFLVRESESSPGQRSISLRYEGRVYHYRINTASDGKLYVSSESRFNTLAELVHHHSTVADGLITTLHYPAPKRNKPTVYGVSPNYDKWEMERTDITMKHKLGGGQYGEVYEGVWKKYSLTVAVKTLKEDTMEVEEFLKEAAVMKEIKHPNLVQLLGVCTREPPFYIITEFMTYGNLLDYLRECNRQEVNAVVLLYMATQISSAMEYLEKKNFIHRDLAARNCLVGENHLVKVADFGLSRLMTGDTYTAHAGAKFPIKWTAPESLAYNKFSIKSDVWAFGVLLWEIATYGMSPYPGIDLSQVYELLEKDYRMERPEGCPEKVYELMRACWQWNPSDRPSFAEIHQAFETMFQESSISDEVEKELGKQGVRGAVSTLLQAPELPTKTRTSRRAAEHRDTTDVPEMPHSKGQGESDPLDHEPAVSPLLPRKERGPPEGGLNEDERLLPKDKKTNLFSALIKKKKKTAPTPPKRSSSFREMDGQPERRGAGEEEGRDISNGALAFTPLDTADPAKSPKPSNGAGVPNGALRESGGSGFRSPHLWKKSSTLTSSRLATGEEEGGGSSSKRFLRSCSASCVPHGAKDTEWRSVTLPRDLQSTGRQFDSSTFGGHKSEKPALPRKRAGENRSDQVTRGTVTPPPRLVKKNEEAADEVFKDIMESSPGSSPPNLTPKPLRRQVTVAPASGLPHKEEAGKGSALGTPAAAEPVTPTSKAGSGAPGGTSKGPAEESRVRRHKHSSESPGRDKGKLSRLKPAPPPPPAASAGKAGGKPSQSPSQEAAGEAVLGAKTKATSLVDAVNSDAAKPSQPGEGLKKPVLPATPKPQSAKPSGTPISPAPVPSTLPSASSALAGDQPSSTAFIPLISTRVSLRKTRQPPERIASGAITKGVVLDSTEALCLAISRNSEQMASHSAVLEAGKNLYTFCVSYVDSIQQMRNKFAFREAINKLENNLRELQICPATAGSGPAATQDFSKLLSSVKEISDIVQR
Phosphatidylinositol 4,5-bisphosphate 3-kinase catalytic subunit alpha isoform (Homo sapiens), P42336 [C420R], sequence (P42336 whole entry C420R, canonical isoform): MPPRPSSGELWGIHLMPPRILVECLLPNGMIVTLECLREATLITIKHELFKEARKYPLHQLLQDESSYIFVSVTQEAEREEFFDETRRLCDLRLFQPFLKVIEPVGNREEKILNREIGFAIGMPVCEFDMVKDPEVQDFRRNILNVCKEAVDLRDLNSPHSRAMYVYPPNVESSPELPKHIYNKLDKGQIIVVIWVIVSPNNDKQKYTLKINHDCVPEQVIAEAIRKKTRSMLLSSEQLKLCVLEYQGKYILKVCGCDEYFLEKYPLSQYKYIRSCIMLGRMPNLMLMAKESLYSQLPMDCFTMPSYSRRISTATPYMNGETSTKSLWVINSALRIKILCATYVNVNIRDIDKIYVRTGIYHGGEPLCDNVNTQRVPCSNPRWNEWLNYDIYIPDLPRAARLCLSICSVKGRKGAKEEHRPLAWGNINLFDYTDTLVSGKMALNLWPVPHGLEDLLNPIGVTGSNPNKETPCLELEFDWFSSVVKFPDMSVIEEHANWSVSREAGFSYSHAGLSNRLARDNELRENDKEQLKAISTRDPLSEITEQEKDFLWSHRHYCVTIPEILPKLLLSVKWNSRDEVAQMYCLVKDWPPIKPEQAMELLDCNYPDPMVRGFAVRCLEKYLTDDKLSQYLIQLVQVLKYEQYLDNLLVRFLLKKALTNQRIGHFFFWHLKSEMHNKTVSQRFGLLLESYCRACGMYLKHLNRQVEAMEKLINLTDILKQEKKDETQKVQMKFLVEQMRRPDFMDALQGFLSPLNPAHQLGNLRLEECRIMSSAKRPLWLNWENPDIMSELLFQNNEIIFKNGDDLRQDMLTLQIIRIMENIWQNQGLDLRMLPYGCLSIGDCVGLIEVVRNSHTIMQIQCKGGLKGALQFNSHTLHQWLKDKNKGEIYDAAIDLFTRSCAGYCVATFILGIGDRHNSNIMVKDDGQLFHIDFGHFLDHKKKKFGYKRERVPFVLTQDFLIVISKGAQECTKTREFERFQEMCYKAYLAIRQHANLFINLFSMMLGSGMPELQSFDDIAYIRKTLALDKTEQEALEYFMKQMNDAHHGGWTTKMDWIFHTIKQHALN
Serine/threonine-protein kinase Nek7 (Homo sapiens), sequence (Q8TDX7 whole entry, looked up): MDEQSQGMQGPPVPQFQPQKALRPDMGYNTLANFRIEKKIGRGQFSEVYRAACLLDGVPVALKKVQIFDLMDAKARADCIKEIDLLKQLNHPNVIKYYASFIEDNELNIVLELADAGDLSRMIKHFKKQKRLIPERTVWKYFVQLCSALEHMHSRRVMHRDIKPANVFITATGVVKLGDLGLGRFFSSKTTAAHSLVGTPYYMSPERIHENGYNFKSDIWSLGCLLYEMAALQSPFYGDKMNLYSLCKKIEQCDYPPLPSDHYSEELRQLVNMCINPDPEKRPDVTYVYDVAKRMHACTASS

SMILES | residual activity [1] [%] | residual activity [2] [%] | residual activity [3] [%] | residual activity [4] [%] | residual activity [5] [%] | residual activity [6] [%] | residual activity [7] [%] | residual activity [8] [%] | residual activity [9] [%] | residual activity [10] [%] | residual activity [11] [%] | residual activity [12] [%] | residual activity [13] [%] | residual activity [14] [%] | residual activity [15] [%] | residual activity [16] [%] | residual activity [17] [%] | residual activity [18] [%] | residual activity [19] [%] | residual activity [20] [%] | also measured
Cn1nc(C(=O)NCc2ccc(C(=O)O)cc2)cc1-c1ccc2[nH]ccc2c1 [BI 4395] | 62 | 80 | 77 | 68 | 89 | 100 | 92 | 100 | 100 | 93 | 100 | 77 | 81 | 77 | 70 | 92 | 86 | 100 | 91 | 100 | residual activity [21]: 100%; residual activity [22]: 95%; residual activity [23]: 98%; residual activity [24]: 100%; residual activity [25]: 84%; residual activity [26]: 95%; residual activity [27]: 64%; residual activity [28]: 49%; residual activity [29]: 91%; residual activity [30]: 88%; residual activity [31]: 54%; residual activity [32]: 96%; residual activity [33]: 100%; inhibition [34]: 16.8%; inhibition [35]: 6.74%
CCOC(=O)c1cc2cc(-c3cc(C(=O)NCc4ccc(C(=O)O)cc4)nn3C)ccc2[nH]1 [BI 4394] | 94 | 98 | 77 | 81 | 100 | 91 | 100 | 89 | 100 | 100 | 100 | 77 | 75 | 96 | 83 | 100 | 91 | 87 | 90 | 96 | residual activity [21]: 75%; residual activity [22]: 81%; residual activity [23]: 100%; residual activity [24]: 100%; residual activity [25]: 83%; residual activity [26]: 90%; residual activity [27]: 90%; residual activity [28]: 100%; residual activity [29]: 88%; residual activity [30]: 100%; residual activity [31]: 100%; residual activity [32]: 82%; residual activity [33]: 83%; inhibition [34]: 27.2%; inhibition [35]: -7.76%
